These are literature values, as cited in US20240189234A1, “SILICON PARTICLES FOR DRUG DELIVERY” (NACAMED AS, priority 2021, published 2024).

The conditions of this series: calculated log P values from Foye's Principles of Medicinal Chemistry.

`CC[C@H]1CN2CCc3cc(OC)c(OC)cc3[C@@H]2C[C@@H]1C[C@H]1NCCc2cc(OC)c(OC)cc21` [Emetine]: the “log P” value is listed as 3.82.

As to `NCCCC[C@H](N[C@@H](CCc1ccccc1)C(=O)O)C(=O)N1CCC[C@H]1C(=O)O` [Lisinopril], the “log P” value was 3.47.

`CN(C)CCC=C1c2ccccc2CCc2ccccc21` [amitriptyline]: the “log P” value is recorded as 4.41.

`c1ccc(CN(CC2=NCCN2)c2ccccc2)cc1` [antazoline]: the lipophilicity (log P) is on record as 3.58.

In the case of `CNCC[C@@H](Oc1ccccc1C)c1ccccc1` [atomoxetine], the log partition coefficient (log P) is recorded as 3.36.

`CCOC(=O)OC(C)OC(=O)[C@@H]1N2C(=O)[C@@H](NC(=O)[C@H](N)c3ccccc3)[C@H]2SC1(C)C` (stereo partly drawn) [bacampicillin]: the “log P” value is recorded as 3.52.

As to `Cc1ccc(C(=O)Oc2ccc(C(O)CNC(C)(C)C)cc2OC(=O)c2ccc(C)cc2)cc1` (stereo not drawn) [bitolterol], the “log P” value was 4.16.

Consider `COc1ccccc1Oc1c(NS(=O)(=O)c2ccc(C(C)(C)C)cc2)nc(-c2ncccn2)nc1OCCO` [bosentan], for which the “log P” value was 4.36.

As for `CN(C)CCOC(c1ccccc1)c1ccc(Br)cc1` (stereo not drawn) [bromodiphenhydramine], the log partition coefficient (log P) is given as 4.03.

In the case of `CN(C)CCC(c1ccc(Br)cc1)c1ccccn1` (stereo not drawn) [brompheniramine], the “log P” value is 3.24.

As to `CCCCN1CCCCC1C(=O)Nc1c(C)cccc1C` (stereo not drawn) [bupivacaine], the “log P” value was 3.31.

For the compound `CCCCN(CCCC)CCCOC(=O)c1ccc(N)cc1` [butacaine], the log partition coefficient (log P) is 4.62.

For `Oc1ccc2c(c1)[C@@]13CCCC[C@@]1(O)[C@@H](C2)N(CC1CCC1)CC3` [butorphanol], the “log P” value is recorded as 3.54.

With `CC1(C)[C@@H](OC(=O)CCC(=O)O)CC[C@]2(C)[C@H]3C(=O)C=C4[C@@H]5C[C@@](C)(C(=O)O)CC[C@]5(C)CC[C@@]4(C)[C@]3(C)CC[C@@H]12` [carbenoxolone], the “log P” value was 6.63.

With `CN(C)CCCN1c2ccccc2Sc2ccc(Cl)cc21` [chlorpromazine], the lipophilicity (log P) is on record as 5.35.

With `CN(C)CC/C=C1/c2ccccc2Sc2ccc(Cl)cc21` [chlorprothixene], the “log P” value is on record as 5.31.

Regarding `C=C[C@H]1C[N@@]2CC[C@H]1C[C@@H]2[C@@H](O)c1ccnc2ccccc12` [cinchonine], the “log P” value was 3.69.

Regarding `CCOC(=O)C(C)(C)Oc1ccc(Cl)cc1` [clofibrate], the “log P” value is 3.88.

`Clc1ccccc1C(c1ccccc1)(c1ccccc1)n1ccnc1` [clotrimazole]: the “log P” value is recorded as 4.92.

On to `C[C@H]1[C@H]2Cc3ccc(O)cc3[C@]1(C)CCN2CC1CC1` [cyclazocine], for which the log partition coefficient (log P) is 3.52.

With `CN(C)CCC=C1c2ccccc2C=Cc2ccccc21` [cyclobenzaprine], the log partition coefficient (log P) was 6.19.

For the compound `CN1CCC(=C2c3ccccc3C=Cc3ccccc32)CC1` [cyproheptadine], the lipophilicity (log P) is recorded as 4.92.

On to `COC(=O)[C@H]1[C@H]2C[C@@H]3c4[nH]c5ccccc5c4CCN3C[C@H]2C[C@@H](OC(=O)c2cc(OC)c(OC)c(OC)c2)[C@@H]1OC` [deserpidine], for which the lipophilicity (log P) is on record as 4.95.

Turning to `CCN[C@@H](C)Cc1cccc(C(F)(F)F)c1` [dextrofenfluramine], the “log P” value is on record as 3.55.

Take `COc1ccc2c(c1)[C@]13CCCC[C@@H]1[C@H](C2)N(C)CC3` [dextromethorphan]: the “log P” value is reported as 3.89.

`CN(C)CCN1C(=O)c2ccccc2N(C)c2ccccc21` [dibenzepin]: the log partition coefficient (log P) is recorded as 3.26.

With `CCCCOc1cc(C(=O)NCCN(CC)CC)c2ccccc2n1` [dibucaine], the log partition coefficient (log P) is recorded as 4.40.

Turning to `Cc1onc(-c2c(Cl)cccc2Cl)c1C(=O)N[C@@H]1C(=O)N2[C@@H]1SC(C)(C)[C@@H]2C(=O)O` [dicloxacillin], the “log P” value is 3.10.

For `CCN(CC)CCOC(=O)C1(C2CCCCC2)CCCCC1` [dicyclomine], the lipophilicity (log P) is listed as 4.64.

Consider `CCN(CC)CCN1c2ccccc2Sc2ccccc21` [diethazine], for which the “log P” value is listed as 5.55.

Take `O=C(O)c1cc(-c2ccc(F)cc2F)ccc1O` [diflunisal]: the “log P” value is 3.65.

In the case of `CC(C)[C@@]1(NC(=O)[C@@H]2C[C@@H]3c4cccc5[nH]cc(c45)C[C@H]3N(C)C2)O[C@@]2(O)[C@@H]3CCCN3C(=O)[C@H](Cc3ccccc3)N2C1=O` [dihydroergocristine], the log partition coefficient (log P) is on record as 6.55.

Regarding `CN1C[C@H](C(=O)N[C@]2(C)O[C@@]3(O)[C@@H]4CCCN4C(=O)[C@H](Cc4ccccc4)N3C2=O)C[C@@H]2c3cccc4[nH]cc(c34)C[C@H]21` [dihydroergotamine], the log partition coefficient (log P) is 5.69.

On to `CCCCc1cc2ccccc2c(OCCN(C)C)n1` [dimethisoquin], for which the “log P” value is 4.04.

As to `O=C(Nc1ccccc1)OCC(CN1CCCCC1)OC(=O)Nc1ccccc1` (stereo not drawn) [diperodon], the lipophilicity (log P) is listed as 4.65.

Take `N#CC(CCN1CCC(C(=O)O)(c2ccccc2)CC1)(c1ccccc1)c1ccccc1` [diphenoxin]: the lipophilicity (log P) was 3.97.

`CN1CCC(OC(c2ccccc2)c2ccccc2)CC1` [diphenylpyraline]: the “log P” value is listed as 3.43.

In the case of `CCC(=O)C(CC(C)N1CCCCC1)(c1ccccc1)c1ccccc1` (stereo not drawn) [dipipanone], the “log P” value is recorded as 5.10.

In the case of `CN(C)CCC=C1c2ccccc2COc2ccccc21` [doxepin], the log partition coefficient (log P) is 3.85.

Take `O=C(CCCN1CC=C(n2c(=O)[nH]c3ccccc32)CC1)c1ccc(F)cc1` [droperidol]: the lipophilicity (log P) is listed as 3.10.

For `CCN(CC)C(=O)/C(C#N)=C/c1cc(O)c(O)c([N+](=O)[O-])c1` [entacapone], the “log P” value is 3.02.

Regarding `CN1C[C@H](C(=O)N[C@]2(C)O[C@@]3(O)[C@@H]4CCCN4C(=O)[C@H](Cc4ccccc4)N3C2=O)C=C2c3cccc4[nH]cc(c34)C[C@H]21` [ergotamine], the “log P” value was 7.37.

For `C[C@]12CC[C@@H]3c4ccc(O)cc4CC[C@H]3[C@@H]1CCC2=O` [estrone], the log partition coefficient (log P) is 3.62.

As for `CCN(CC)C(C)CN1c2ccccc2Sc2ccccc21` (stereo not drawn) [ethopropazine], the lipophilicity (log P) was 4.77.

Turning to `CCCN(CC)C(CC)C(=O)Nc1c(C)cccc1C` (stereo not drawn) [etidocaine], the lipophilicity (log P) is 3.57.

On to `O=C(O)Cc1ccccc1Oc1ccc(Cl)cc1Cl` [fenclofenac], for which the lipophilicity (log P) is recorded as 4.59.

Turning to `CCNC(C)Cc1cccc(C(F)(F)F)c1` (stereo not drawn) [fenfluramine], the log partition coefficient (log P) is 3.55.

With `CC(C(=O)O)c1cccc(Oc2ccccc2)c1` (stereo not drawn) [fenoprofen], the lipophilicity (log P) was 3.72.

Take `CC(C)C(=O)Oc1ccc(CO)cc1[C@H](CCN(C(C)C)C(C)C)c1ccccc1` [fesoterodine]: the log partition coefficient (log P) is listed as 5.08.

`CC(C)(C)NC(=O)[C@H]1CC[C@H]2[C@@H]3CC[C@H]4NC(=O)C=C[C@]4(C)[C@H]3CC[C@]12C` [finasteride]: the lipophilicity (log P) is 3.83.

On to `O=C(O)c1ccccc1Nc1cccc(C(F)(F)F)c1` [flufenamic acid], for which the “log P” value was 5.22.

Regarding `COc1ccc(-c2nc(C(F)(F)F)[nH]c2-c2ccc(OC)cc2)cc1` [flumizole], the log partition coefficient (log P) is reported as 4.26.

For the compound `CNCCC(Oc1ccc(C(F)(F)F)cc1)c1ccccc1` (stereo not drawn) [fluoxetine], the “log P” value is reported as 3.93.

In the case of `OCCN1CCN(CC/C=C2/c3ccccc3Sc3ccc(C(F)(F)F)cc32)CC1` [flupenthixol], the “log P” value is recorded as 3.67.
